# Experimental data from patent publication US20160091485A1, “MARKERS FOR EZH2 INHIBITORS” (THE BROAD INSTITUTE, INC., priority 2013, published 2016).
# Assays:
# [1] = biological target: Y641F EZH2 (Homo sapiens, UniProt Q15910, Y641F); details: SAM competitive; cited from earlier work
# [2] = biological target: wild type EZH2 (Homo sapiens, UniProt Q15910); details: SAM competitive; cited from earlier work
# [3] = tested on: cancer cell lines with EZH2 gain-of-function mutations (MCS Cluster A); assay: Cell proliferation, cell lines sensitive by EZH2 genotype and MCS (cluster A); type: cell-based; details: FIG. 5; cells predicted to be sensitive by EZH2 genotyping and by MCS
# Experimental: (§1) B cell lymphoma cells were cultured using standard cell culture conditions. For example, lymphoma cells were cultured in RPMI-1640 (Invitrogen, cat #11875, Grand Island, N.Y.) supplemented with 15% FBS (Invitrogen, cat #10099-141, Grand Island, N.Y.) in humidified incubator at 37° C., 5% CO2. To assess the effect of EZH2 inhibitor on cell proliferation, exponentially growing cells were seeded at a density of 1×10^5 cells/ml in 12-well plate (Corning, cat #CLS3513 Tewksbury, Mass.). Compounds were added after cell seeding at the indicated final concentration, and viable cell number was determined every 3-4 days continuously during the course of experiment using Vi-CELL (Beckman Coulter, Brea, Calif.). On days of cell counting, fresh growth media and compound were replenished and cells split back to a density of 1×10^5 cells/ml. Total cell number and population doubling was then calculated.
# [4] = tested on: cells carrying EZH2 gain of function mutation, not in cluster A (low levels of H3K27me3); assay: Cell proliferation, EZH2 gain of function cells not in cluster A; type: cell-based; details: FIG. 6, cells predicted sensitive by genotyping, insensitive by MCS
# Experimental: as §1
# Y641F EZH2, sequence (Q15910 whole entry Y641F): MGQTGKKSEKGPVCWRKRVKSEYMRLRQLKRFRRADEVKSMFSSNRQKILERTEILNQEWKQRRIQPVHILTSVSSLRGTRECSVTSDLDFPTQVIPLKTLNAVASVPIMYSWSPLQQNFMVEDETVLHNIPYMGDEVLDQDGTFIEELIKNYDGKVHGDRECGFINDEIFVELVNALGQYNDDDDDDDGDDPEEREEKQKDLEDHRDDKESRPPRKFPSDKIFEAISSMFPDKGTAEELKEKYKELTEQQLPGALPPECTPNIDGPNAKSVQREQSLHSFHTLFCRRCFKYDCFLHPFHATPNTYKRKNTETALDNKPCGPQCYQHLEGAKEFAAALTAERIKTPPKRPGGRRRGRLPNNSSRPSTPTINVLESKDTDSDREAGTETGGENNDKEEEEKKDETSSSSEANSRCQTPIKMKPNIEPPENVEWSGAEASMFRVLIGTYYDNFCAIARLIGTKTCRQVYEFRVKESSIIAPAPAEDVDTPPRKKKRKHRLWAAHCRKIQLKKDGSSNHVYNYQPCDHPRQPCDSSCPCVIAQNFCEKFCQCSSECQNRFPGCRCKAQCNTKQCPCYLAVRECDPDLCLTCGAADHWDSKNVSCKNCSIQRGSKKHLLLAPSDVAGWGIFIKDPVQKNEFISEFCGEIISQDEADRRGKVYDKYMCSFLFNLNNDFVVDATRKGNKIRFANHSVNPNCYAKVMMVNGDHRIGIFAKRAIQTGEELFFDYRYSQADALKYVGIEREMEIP
# Y641F EZH2, sequence (O75530 whole entry partner): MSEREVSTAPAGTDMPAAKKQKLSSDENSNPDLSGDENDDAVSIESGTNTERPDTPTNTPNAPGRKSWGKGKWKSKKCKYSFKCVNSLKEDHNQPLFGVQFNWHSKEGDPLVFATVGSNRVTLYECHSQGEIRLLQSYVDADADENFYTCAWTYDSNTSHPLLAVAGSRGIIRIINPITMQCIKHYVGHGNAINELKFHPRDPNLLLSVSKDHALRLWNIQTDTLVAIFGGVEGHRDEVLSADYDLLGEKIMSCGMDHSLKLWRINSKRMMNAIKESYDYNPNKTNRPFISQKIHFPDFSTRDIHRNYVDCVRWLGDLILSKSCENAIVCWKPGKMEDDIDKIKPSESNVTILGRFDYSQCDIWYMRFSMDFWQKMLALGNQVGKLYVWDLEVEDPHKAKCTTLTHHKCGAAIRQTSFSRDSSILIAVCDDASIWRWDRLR
# Y641F EZH2, sequence (Q15022 whole entry partner): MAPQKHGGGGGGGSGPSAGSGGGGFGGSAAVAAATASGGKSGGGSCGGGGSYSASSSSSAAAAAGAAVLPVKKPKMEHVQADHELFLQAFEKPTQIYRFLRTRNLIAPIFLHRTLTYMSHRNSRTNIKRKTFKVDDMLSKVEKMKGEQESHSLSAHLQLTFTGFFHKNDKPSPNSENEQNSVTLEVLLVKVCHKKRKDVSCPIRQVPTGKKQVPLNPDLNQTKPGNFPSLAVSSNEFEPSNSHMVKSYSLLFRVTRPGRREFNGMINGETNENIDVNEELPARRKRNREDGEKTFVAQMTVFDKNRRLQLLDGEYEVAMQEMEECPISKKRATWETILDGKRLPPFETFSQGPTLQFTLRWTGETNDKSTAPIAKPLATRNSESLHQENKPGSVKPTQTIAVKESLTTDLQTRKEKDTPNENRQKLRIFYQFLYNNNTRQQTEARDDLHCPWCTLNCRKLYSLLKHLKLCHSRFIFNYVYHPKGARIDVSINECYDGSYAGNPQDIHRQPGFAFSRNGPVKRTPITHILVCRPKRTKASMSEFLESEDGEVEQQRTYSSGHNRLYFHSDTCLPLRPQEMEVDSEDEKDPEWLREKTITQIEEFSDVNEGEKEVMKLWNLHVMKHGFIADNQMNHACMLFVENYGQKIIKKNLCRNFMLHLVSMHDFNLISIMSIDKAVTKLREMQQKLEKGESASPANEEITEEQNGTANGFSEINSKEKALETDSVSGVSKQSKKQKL
# wild type EZH2, sequence (Q15910 whole entry): as the sequence (Q15910 whole entry Y641F) above, with F641Y counted along it
# wild type EZH2, sequence (O75530 whole entry partner): as the sequence (O75530 whole entry partner) above
# wild type EZH2, sequence (Q15022 whole entry partner): as the sequence (Q15022 whole entry partner) above
smiles,measurement,setting,value
"CCC(CC)n1ccc2c(C(=O)NCc3c(C)cc(C)[nH]c3=O)cc(C#N)cc21 [EI1, 6-cyano-N-((4,6-dimethyl-2-oxo-1,2-dihydropyridin-3-yl)methyl)-1-(pentan-3-yl)-1H-indole-4-carboxamide]",IC50,[1],13.2 nM
same,IC50,[2],9.4 nM
same,sensitivity of cells to EZH2 inhibitor (cell proliferation),[3],sensitive
same,sensitivity of cells to EZH2 inhibitor (cell proliferation),[4],insensitive
